Measured values from patent US4957926A, “Method of treating herpesviruses” (priority 1988, dated 1990).
Like-named read-outs stand apart in the source and are kept apart here.

Key:
[1] = tested on: Herpes Simplex Type II (Viral Strain HG52); assay: Herpes Simplex Type II Plaque Reduction Assay; type: cell-based; conditions: for Plaque Count: replicate counts; for EC50: HSV type II
Excerpt: (§1) For testing the N-Bu-DNJ against HSV, the HSV Type II strain HG52 described by Timbury, J. Gen. Virol. 13, 373-376 (1971), and Davis et al., Analyst 110, 605-609 (1985), is useful. For testing against CMV, the prototype CMV ADl69 strain described, for example, by Tyms et al., J. Gen. Virol. 68, 1563-1573 (1987), and in U.S. Pat. No. 4,743,560, is useful. Another useful CMV strain is the Towne strain described by Glazer et al., Ann. Inter. Med. 91, 676-683 (1979).
(§2) Human embryo fibroblast cells (HEF) were grown in Eagles minimal essential medium supplemented with 7% fetal calf serum (FCS), 9 mM sodium bicarbonate and 7 mM HEPES buffer. In maintenance medium the supplements were adjusted to 2% FCS, 13 mM sodium bicarbonate and 14 mM HEPES. CMV, strain Towne, and HSV type II, strain […], were used in the following tests. CMV virus stocks were prepared and stored by technique as previously described by Tyms & Williamson, Nature 297, 690-691 […]. Herpes virus stocks were prepared and stored by technique as previously described by Davis et al., Analyst 110, 605-609 (1985). The HEF were human embryonic lung fibroblasts, strain MRC-5, as described by Tyms and Williamson, Nature 297, 690-691 (1982).
(§3) For plaque reduction assays, 24-well culture trays were seeded with HEF cells. Confluent monolayers were infected with virus to give initially about 100 plaque-forming-units (p.f.u.) per well. After a one hour absorption period the inocula were replaced by l.5ml of a maintenance medium incorporating 0.5% low gelling temperature agarose, supplemented with various concentrations of test compound. For tests with CMV, infected monolayers were fixed with 5% formalin in phosphate buffered saline (PBS) at 6-8 days post-infection and stained with 0.3% methylene blue after removal of the overlay; whereas, tests with HSV were conducted in the same manner but with the monolayer fixing at 2 days post infection. The mean plaque number was calculated from a multiple series of counts (e.g., duplicate, triplicate or quadruplicate), converted to a percentage of untreated controls and values plotted against the log10 drug concentration. The 50% effective dose (ED50) was determined from best line fits for the curves.
The mean plaque numbers determined on HEF cells exposed to varying amount of N-Bu-DNJ, N-Me-DNJ, N-He-DNJ, 2-deoxy-D-glucose and castanospermine were converted to percentage values (plaque count in presence of drug divided by mean value of untreated controls×100), and plotted as a function of drug concentration [drug (mM)].
The 50% effective dose (ED50)--that amount of drug needed to reduce plaque count by 50%--was calculated to give the following values: […]

HEF cells (strain MRC-5) [2] = type: cell-based, human
Protocol: Triplicate titer plates were seeded with human embryo fibroblast (HEF) cells (about 7.5×10^3 cells/well), and after 4 days of growth in the absence of presence of 2-deoxy-D-glucose and N-Bu-DNJ were counted and compared to a control without test compound.

[3] = tested on: Cytomegalovirus (Viral Strain Towne); assay: Cytomegalovirus Plaque Reduction Assay; type: cell-based; conditions: for Plaque Count: replicate counts
Excerpt: as §1, §2, §3
In a similar manner, the Effective Dosage Values (ED50) were determined from the curves of FIG. 1. A least squares fit of the data of FIG. 1 to an equation of the form: y=mx+b gave the following values: […]
From these values, a 50% effective dose (ED50) was calculated to give the following values: […]

[4] = tested on: Cytomegalovirus (Viral Strain Towne); assay: Yield Reduction Assay against infections with CMV (Towne strain); type: cell-based; conditions: for activity at 500 µM / activity at 2000 µM: read-out: % Virus Control
Protocol: Antiviral activities of N-Bu-DNJ and comparative test compounds against infections with CMV (Towne strain) were also measured by the yield reduction assay as follows:
HEF cells (MRC-5) were infected at high multiplicity of infection (about one p.f.u. per cell) and incubated with various concentrations of the test compounds for 5 and 6 days post infection. The level of infectious virus shed into the extracellular fluid was determined at 5 and 6 days by plaque assays as described above, using serial dilution of extracellular fluid to bring readings on scale.
In Table VI, to calculate plaque-forming units (PFU) of the maintenance medium overlayering HEF cells, the plaque count at the most sensitive dilution (from Table V) was multiplied by dilution value and then by 5 (0.2 ml sample volumes used in test) to give PFU (per ml maintenance medium). (e.g. calculation of drug control: 31×10^3 ×5=1.6×10^5 PFU).

HIV = conditions: Tyms et al., Lancet, 1987; cited from earlier work
HEF cells (strain MRC-5) [5] = assay: HEF cell growth / monolayer appearance in HSV type II plaque reduction assay; type: cell-based, human
Protocol: as §3

[6] = Human betaherpesvirus 5, MRC5, 120 h
[7] = Human betaherpesvirus 5, MRC5, 144 h

SMILES: O=CC[C@@H](O)[C@H](O)[C@H](O)CO [2-Deoxy-D-glucose, 2-deoxy-D-glucose, reference compound]
- inhibitory effect on herpesvirus type II (in words) ([1]; 2.5 mM): no inhibitory effect was observed
- activity at 2500 µM ([1]; HEF, Table II, 2.5 mM, read-out: % Virus control): ≥ 100%
- activity at 5000 µM ([1]; HEF, Table II, 5.0 mM, read-out: % Virus control): 77%
- Plaque Count Avg ([1]; Table II, 2.5 mM): 91
- Plaque Count ([1]; Table II, 2.5 mM): 94,88
- Plaque Count Avg ([1]; Table II, 5.0 mM): 69
- Plaque Count ([1]; Table II, 5.0 mM): 61,76
- inhibitory effect on growth of normal cells (in words) (HEF cells (strain MRC-5) [2]): substantially inhibits the growth

SMILES: O[C@H]1[C@H](O)[C@@H](O)CN2CC[C@H](O)[C@H]12 [Castanospermine, castanospermine, reference compound]
- activity at 250 µM ([1]; HEF, Table II, 0.25 mM, read-out: % Virus control): 56%
- activity at 500 µM ([1]; HEF, Table II, 0.5 mM, read-out: % Virus control): 53%
- activity at 1000 µM ([1]; HEF, Table II, 1.0 mM, read-out: % Virus control): 42%
- activity at 2000 µM ([1]; HEF, Table II, 2.0 mM, read-out: % Virus control): 50%
- activity at 4000 µM ([1]; HEF, Table II, 4.0 mM, read-out: % Virus control): 36%
- Plaque Count Avg ([1]; Table II, 0.25 mM): 50
- Plaque Count ([1]; Table II, 0.25 mM): 46,54
- Plaque Count Avg ([1]; Table II, 0.5 mM): 48
- Plaque Count ([1]; Table II, 0.5 mM): 52,44
- Plaque Count Avg ([1]; Table II, 1.0 mM): 38
- Plaque Count ([1]; Table II, 1.0 mM): 21,55
- Plaque Count Avg ([1]; Table II, 2.0 mM): 45
- Plaque Count ([1]; Table II, 2.0 mM): 61,28
- Plaque Count Avg ([1]; Table II, 4.0 mM): 32
- Plaque Count ([1]; Table II, 4.0 mM): 33,32
- EC50 ([3]; Human betaherpesvirus 5, HEF, CMV, calculated from least squares fit of FIG. 1, read-out: 50% effective dose (ED50)): 600 µM
- activity at 250 µM ([3]; Human betaherpesvirus 5, HEF, Table IV, 0.25 mM, read-out: % Virus control): 81%
- activity at 500 µM ([3]; Human betaherpesvirus 5, HEF, Table IV, 0.50 mM, read-out: % Virus control): 55%
- activity at 1000 µM ([3]; Human betaherpesvirus 5, HEF, Table IV, 1.0 mM, read-out: % Virus control): 30%
- activity at 2000 µM ([3]; Human betaherpesvirus 5, HEF, Table IV, 2.0 mM, read-out: % Virus control): 12%
- Plaque Count Avg ([3]; Table IV, 0.25 mM): 166
- Plaque Count ([3]; Table IV, 0.25 mM): 146,191,184,144
- Plaque Count Avg ([3]; Table IV, 0.50 mM): 113
- Plaque Count ([3]; Table IV, 0.50 mM): 108,112,122,111
- Plaque Count Avg ([3]; Table IV, 1.0 mM): 61
- Plaque Count Avg ([3]; Table IV, 2.0 mM): 25
- PFU ([4]; 0.5 mM, 5 days HEF growth): 2.1 × 10^4 PFU (per ml maintenance medium
- PFU ([4]; 0.5 mM, 6 days HEF growth): 2.3 × 10^4 PFU (per ml maintenance medium
- PFU ([4]; 2.0 mM, 5 days HEF growth): 2.3 × 10^3 PFU (per ml maintenance medium
- PFU ([4]; 2.0 mM, 6 days HEF growth): 1.8 × 10^3 PFU (per ml maintenance medium
- activity at 500 µM [4, 6]: 13%
- activity at 2000 µM [4, 6]: 1.4%
- activity at 500 µM [4, 7]: 6.2%
- activity at 2000 µM [4, 7]: 0.48%
- block of HIV growth (in words) (HIV): found to block the growth of the AIDS-associated virus HIV

SMILES: OC[C@H]1NC[C@H](O)[C@@H](O)[C@@H]1O [DNJ, 1,5-dideoxy-l,5-imino-Dglucitol]
- block of HIV growth (in words) (HIV): found to block the growth of the AIDS-associated virus HIV

SMILES: CCCCCCN1C[C@H](O)[C@@H](O)[C@H](O)[C@H]1CO [N-He-DNJ, Nhexyl deoxynojirimycin]
- EC50 ([1]; HEF, tested up to 1.1 mM, read-out: estimated ED50): ~250 µM
- activity at 560 µM ([1]; HEF, Table III, 0.56 mM, read-out: % Virus Control): 31.4%
- activity at 1120 µM ([1]; HEF, Table III, 1.12 mM, read-out: % Virus Control): 15.7%
- Plaque Count Avg ([1]; Table III, 0.56 mM): 16
- Plaque Count Avg ([1]; Table III, 1.12 mM): 8
- Plaque Count ([1]; Table III, 2.25 mM): trace
- Plaque Count ([1]; Table III, 4.5 mM): none
- size of plaques compared to control test (in words) ([1]; Table III, 2.25 and 4.5 mM): significantly reduced
- antiviral activity against HSV type II (in words) ([1]; up to 1.1 mM): substantial antiviral activity
- HEF cell growth (in words) (HEF cells (strain MRC-5) [5]; 0.56 and 1.12 mM): grew normally
- appearance of HEF cell monolayers (in words) (HEF cells (strain MRC-5) [5]; 2.25 and 4.5 mM): looked thin
- cell growth (in words) (HEF cells (strain MRC-5) [5]; higher concentrations (above 1.1 mM)): cell growth also was retarded

SMILES: CN1C[C@H](O)[C@@H](O)[C@H](O)[C@H]1CO [N-Me-DNJ, Nmethyl deoxynojirimycin]
- antiviral activity against HSV type II (in words) [1]: substantially reduce herpesvirus type II infection of HEF cells
- EC50 ([1]; HEF, amount of drug needed to reduce plaque count by 50%, read-out: 50% effective dose (ED50)): 2800 µM
- activity at 280 µM ([1]; HEF, Table I, 0.28 mM, read-out: % Virus Control): ≥ 100%
- activity at 560 µM ([1]; HEF, Table I, 0.56 mM, read-out: % Virus Control): 99%
- activity at 1120 µM ([1]; HEF, Table I, 1.12 mM, read-out: % Virus Control): 88%
- activity at 2240 µM ([1]; HEF, Table I, 2.24 mM, read-out: % Virus Control): 50%
- activity at 4480 µM ([1]; HEF, Table I, 4.48 mM, read-out: % Virus Control): 18%
- Plaque Count Avg ([1]; Table I, 0.28 mM): 84
- Plaque Count ([1]; Table I, 0.28 mM): 72,95
- Plaque Count Avg ([1]; Table I, 0.56 mM): 77
- Plaque Count ([1]; Table I, 0.56 mM): 79,74
- Plaque Count Avg ([1]; Table I, 1.12 mM): 69
- Plaque Count ([1]; Table I, 1.12 mM): 63,74
- Plaque Count Avg ([1]; Table I, 2.24 mM): 39
- Plaque Count ([1]; Table I, 2.24 mM): 48,29
- Plaque Count Avg ([1]; Table I, 4.48 mM): 14
- Plaque Count ([1]; Table I, 4.48 mM): 9,19
